For 17 molecules, IC50 results are on record in US20060281778A1, “Compounds for inhibiting KSP Kinesin activity” (Schering Corporation, priority 2005, published 2006).

Each structure is given as a SMILES string.

One assay has as its target T1, KSP motor domain (Homo sapiens, UniProt P52732).
T1 sequence (P52732 18-359 limits assumed): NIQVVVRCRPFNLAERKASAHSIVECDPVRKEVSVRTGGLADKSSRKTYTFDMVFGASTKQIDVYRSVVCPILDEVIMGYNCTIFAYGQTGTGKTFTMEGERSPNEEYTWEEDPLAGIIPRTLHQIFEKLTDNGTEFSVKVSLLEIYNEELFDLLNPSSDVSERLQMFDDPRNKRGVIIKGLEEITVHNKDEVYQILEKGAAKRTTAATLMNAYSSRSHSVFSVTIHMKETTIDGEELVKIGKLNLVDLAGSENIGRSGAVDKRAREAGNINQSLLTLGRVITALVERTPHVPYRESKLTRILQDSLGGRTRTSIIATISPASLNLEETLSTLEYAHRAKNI
As to the kind of experiment: KSP endpoint assay (microtubule-stimulated ATPase, Biomol green, OD620). The assay is classed as biochemical.
Conditions: not given
As for the experimental part:
Serial dilutions of the compounds were prepared in a low binding, 96-well microtiter plate (Costar #3600) using 40% DMSO (Fisher BP231). The diluted compounds were added to a 384-well microtiter plate (Fisher 12-565-506). […] Following a 10 minute incubation, ATP (Sigma A-3377) (final concentration of ATP: 100 μM) was added to start the reaction. The final reaction volume was 25 μL. Final test compound concentration ranged from 50 μM to 5 nM, and 10 μM to 0.128 nM. The reaction was incubated for 1 hour at room temperature. The reaction was stopped by the addition of 50 μL Biomol green reagent (Biomol AK111) per well, and was allowed to incubate for 20 minutes at room temperature. The 384-well microtiter plate was then transferred to an absorbance reader (Molecular Devices SpectraMax plus) and a single measurement was taken at 620 nm.
For both endpoint and kinetic assays, the percent activity for each concentration is calculated using the following equation: Y=((X−background)/(positive control−background))*100
Y is the % activity and X is the measured reading (OD620 or rate)
For an IC50 determination, the % activity was fit by the following equation using a nonlinear curve-fitting program for sigmoidal dose-responses (variable slopes) (GraphPad Prizm). Y=Bottom+(Top−Bottom)/(1+10ˆ((Log EC50−X)*HillSlope))
All IC50 values are obtained from the end point assay.
As to `C[Si](C)(C)c1ccc2nc3sc(C(N)=O)cc3cc2c1` [Compound 12, 6-(trimethylsilyl)thieno[2,3-b]quinoline-2-carboxamide], half-maximal inhibition (IC50) required 38 nM.

The same assay, now with this note: endpoint assay; 2.5-10 nM KSP motor domain, 55 μg/mL microtubules, 100 μM ATP, 1 hour at room temperature; read-out: IC50 (KSP inhibitory activity, endpoint assay).
As for `CC(C)(C)c1ccc2nc3sc(C#N)cc3cc2c1` [Compound 1, 6-tert-butyl-thieno[2,3-b]quinoline-2-carbonitrile], the IC50 came to 160 nM.

In the case of `CC(C)(C)c1ccc2nc3sc(C(N)=O)cc3cc2c1` [Compound 2, 6-tert-butyl-thieno[2,3-b]quinoline-2-carboxylic acid amide], the IC50 was 80 nM.

For `CC(C)(C)c1ccc2nc3sc(C(=O)O)cc3cc2c1` [Compound 3, 6-tert-butyl-thieno[2,3-b]quinoline-2-carboxylic acid], the concentration for half-maximal inhibition (IC50) was over 10000 nM.

Turning to `CC(C)(C)OC(=O)NCCNC(=O)c1cc2cc3cc(C(C)(C)C)ccc3nc2s1` [Compound 4, {2-[(6-tert-Butyl-thieno[2,3-b]quinoline-2-carbonyl)amino]ethyl}carbamic acid tert-butyl ester], the IC50 is over 10000 nM.

With `CC(C)(C)c1ccc2nc3sc(C(=O)NCCN)cc3cc2c1` [Compound 5, 6-tert-butyl-thieno[2,3-b]quinoline-2-carboxylic acid (2-aminoethyl)amide], the IC50 was 70 nM.

Turning to `CNCCNC(=O)c1cc2cc3cc(C(C)(C)C)ccc3nc2s1` [Compound 6, 6-tert-butyl-thieno[2,3-b]quinoline-2-carboxylic acid (2-methylaminoethyl)amide], the IC50 is 290 nM.

Take `CN(C)CCNC(=O)c1cc2cc3cc(C(C)(C)C)ccc3nc2s1` [Compound 7, 6-tert-butyl-thieno[2,3-b]quinoline-2-carboxylic acid (2-dimethylaminoethyl)-amide]: the IC50 is over 10000 nM.

Turning to `CC(C)(C)c1ccc2nc3sc(C(=O)NCCC#N)cc3cc2c1` [Compound 8, 6-tert-Butyl-thieno[2,3-b]quinoline-2-carboxylic acid (2-cyanoethyl)amide], the IC50 worked out at 9000 nM.

For the molecule `CC(C)(C)c1ccc2nc3sc(C(=O)NCC#N)cc3cc2c1` [Compound 9, 6-tert-butyl-thieno[2,3-b]quinoline-2-carboxylic acid cyanomethylamide], the IC50 was determined as 600 nM.

`COc1ccc(CN2CC(NC(=O)c3cc4cc5cc(C(C)(C)C)ccc5nc4s3)C2=O)c(OC)c1` (centres unmarked) [Compound 10, 6-tert-butyl-thieno[2,3-b]quinoline-2-carboxylic acid [1-(2,4-dimethoxybenzyl)-2-oxo-azetidin-3-yl]amide]: the IC50 is over 10000 nM.

Regarding `CC(C)(C)c1ccc2nc3sc(C(=O)NC4CNC4=O)cc3cc2c1` (centres unmarked) [Compound 11, 6-tert-butyl-thieno[2,3-b]quinoline-2-carboxylic acid (2-oxo-azetidin-3-yl)amide], the IC50 was 8400 nM.

For `CC(C)(C)c1ccc2nc3sc(C(=O)N[C@H](CN)c4ccccc4)cc3cc2c1` [Compound 13, 6-tert-butyl-thieno[2,3-b]quinoline-2-carboxylic acid (2-amino-1-(S)-phenyl-ethyl)-amide], the IC50 was 35 nM.

Turning to `CC(C)(C)c1ccc2nc3sc(C(=O)N[C@H](CN)c4cccc(N)c4)cc3cc2c1` [Compound 14, 6-tert-butyl-thieno[2,3-b]quinoline-2-carboxylic acid [2(S)-amino-1-(3-amino-phenyl)-ethyl]-amide], the IC50 is 25 nM.

For `CC(C)(C)c1ccc2nc3sc(C(=O)N[C@H](CN)c4cccc(NC(=O)c5cnccn5)c4)cc3cc2c1` [Compound 15, 6-tert-butyl-thieno[2,3-b]quinoline-2-carboxylic acid (2-amino-1(S)-{3-[(pyrazine-2-carbonyl)-amino]-phenyl}-ethyl)-amide], the IC50 was determined as 30 nM.

As for `CC(C)(C)c1ccc2nc3sc(C(=O)N[C@H](CN)c4cccc(NC(=O)c5nccnc5N)c4)cc3cc2c1` [Compound 16], the IC50 came to 26 nM.

As for `Cc1cc(C(=O)Nc2cccc([C@@H](CN)NC(=O)c3cc4cc5cc(C(C)(C)C)ccc5nc4s3)c2)no1` [Compound 17, 6-tert-butyl-thieno[2,3-b]quinoline-2-carboxylic acid (2-amino-1(S)-{3-[(5-methyl-isoxazole-3-carbonyl)-amino]-phenyl}-ethyl)-amide], the IC50 came out at 36 nM.

For orientation: IC50 means the concentration needed to halve the response being measured.
